Experimental findings from US6573296B2, “Therapeutic quassinoid preparations with antineoplastic, antiviral, and herbistatic activity” (priority 1997, dated 2003) are described below.

The subject of experiment [1] is colon adenocarcinoma #38 [C38]. The experiment in a line: in vivo chemotherapy of SC transplanted tumor. Set-up: species or system mice. An excerpt:
Mice. Inbreds mice used were C57B1/6, C3H/He, Balb/c, and DBA/2; hybrids were: B6D2F1 (C57B1/6 females×DBA/2 males), and CD2F1 (Balb/c females×DBA/2 males). All mice were obtained from the Frederick Cancer Research Facility, Frederick, Md.
Tumors were maintained in the mouse strain of origin and were transplanted into either an appropriate F1 hybrid or the strain of origin for therapy trials. All mice were over 17 g at the start of therapy; the range of individual body weights in each experiment was within 2 g. The mice were supplied food and water ad libitum.
Antitumor Agents. The compound easily dissolved in the diluent which consisted of 3% [V/V (100%-Pure)] Ethanol, 1% (V/V) polyoxyethylanesorbitan monopalmitate (P.O.E.40) and 96% sterile distilled water. The primary route of administration was intravenous (IV).
[…] Chemotherapy. The methods of protocol design, tumor transplantation, drug treatment, endpoint determination, definition of terms, toxicity evaluation, data analysis, quantification of tumor cell kill, and the biologic significance of the drug treatment results with transplantable tumors have been presented. The following is a brief summary of those methods as they apply to the work described.
The animals necessary to begin an experiment were pooled, implanted bilaterally SC on day 0 with 30 to 60 mg tumor fragments using a 12 gauge trocar, and again pooled before randomization to the various treatment and control group. Chemotherapy was either started within 3 days after tumor implantation while the number of cells per mouse was relatively small (10^7 to 10^8 cells), or allowed to grow to palpation (about 3×10^8 cells) in a more advanced stage trial.
Tumors were measured with a caliper either once or twice weekly (as needed) until either tumors exceeded 1500 mg or cure was. assured. Tumor weights were estimated from two-dimensional measurements:
Tumor Weight (mg)=(a×b^2)/2, where a and b are the tumor length and width (mm) respectively.
Tumor growth delay. (T-C value), where T is the median time (in days) required for the treatment group tumors to reach a predetermined size, and C is the median time (in days) for the control group tumors to reach the same size. Tumor-free survivors were excluded from these calculations (cures were tabulated separately).
Calculation of tumor cell kill. For SC growing tumors, the log10 cell kill was calculated from the following formula: [formula]
Where T-C is the tumor growth delay (in days) as described above and Td is the tumor volume doubling time (in days), the latter estimated from the best fit straight line from a log-linear growth plot of the control-group tumors in exponential growth (500 to 1500 mg range). The conversion of the T-C values of log10 cell kill is possible because the Td for tumors regrowing post-treatment approximated the Td values of the tumors in untreated control mice.
Determination of activity by tumor growth inhibition (T/C value). Measurements were carried out simultaneously in both the treatment and control groups. When the control group tumors reached approximately 750-1500 mg in size (median of group), the median tumor weight of each group was determined (including zeros).

The subject of experiment [2] is NADH oxidase. The experiment in a line: NADH oxidase activity of rat liver cell fractions. As to conditions: for EC50: read-out: ED50, inhibition of NADH oxidase activity.
The test system of experiment [3] is HIV infected human MOLT-4 cells. In words: differential killing of HIV infected cells. Type of experiment: cell-based. The note with it: FIGS. 8 and 9.
In experiment [4] the test system is NADH oxidase. The experiment in a line: NADH oxidase activity of CFK microsomes from uninfected cells. As to conditions: read-out: ED50, inhibition of NADH oxidase activity; Plasma membrane-free CFK microsomes (Golgi-enriched) from uninfected cells.
Experiment [5] relates to HeLa cells. In words: growth of HeLa cells under different redox poise. Type of experiment: cell-based. As to conditions: 10^−7 M, no drug 725. As for the experimental part: The reduced environment was obtained by addition of 100 μM cysteine and the oxidized environment by addition of 10 μM ter-butylhydroperoxide.
Experiment [6] deals with leukemia and solid tumor cells. In words: in vitro differential cytotoxicity, solid tumor versus leukemia. The class given is cell-based. The note with it: solid tumor versus leukemia zones.
Experiment [7] has as its system human rhinovirus-14. The experiment in a line: cytopathic effect of rhinovirus in HeLa cells. Type of experiment: cell-based. The note with it: HeLa cells (Wisconsin strain), visually observed. As for the experimental part: C. HeLa cells (Wisconsin strain, Berlin, Germany) were contacted with human rhinovirus-14. Infected cells (Wisconsin strain) were visually observed. […] HeLa cells were not killed by any compounds used. Cells of other HeLa lines (eg. ATCC CCL2) were killed. Glaucarubolone, simalikalactone D and chaparrinone were tested on cell killing and virus production by primary blood monocytes. All three drugs were tested at five concentrations (0, 10^−9, 10^−8, 10^−7, and 10^−6 M). Drugs were given at different times pre-infection, given at the time of infection, or were administered at different times post-infection.
(In general: Cytopathic effects are the visible damage that an infection or toxin causes in cultured cells.)

Experiment [8] deals with NADH oxidase. The experiment in a line: NADH oxidase activity of soybean hypocotyl plasma membrane vesicles. Type of experiment: biochemical. As to conditions: plant soybean hypocotyl tissue, FIG. 11.
Experiment [9] concerns H8. In words: soft agar disk diffusion zone of inhibition assay. Type of experiment: cell-based, human. As to conditions: 25 ug/disk. An excerpt:
(§1) The following human tumors were used: Human adenosquamous lung tumor H-125 (7) and colon tumors H8, HCT-116, and CX-1 were used for in vitro testing only. Each human cell line was maintained in culture until plating was done. HCT-116, H8, and CX-1 were maintained in McCoy's media and heat inactivated fetal bovine serum (11% FBS). It was passaged (1:5 dilution) twice week following enzymatic dissociation using a trypsin/PBS-EDTA mixture. H-125 was maintained in CMRL/Fischer media (1:1) with 11% FBS. It was mechanically dissociated and passaged (3:10 dilution) weekly. For the plating assay, all cells were mechanically dispersed and diluted in the CMRL/Fischer. media mixture.

Experiment [10] relates to CX-1. The experiment in a line: soft agar disk diffusion zone of inhibition assay. The class given is cell-based, human. As to conditions: 25 ug/disk.
Text: as §1

Experiment [11] relates to cabbage, radish, carrot, tomato and sorghum seeds. In words: seed germination. The class given is in vivo. As for the experimental part:
To evaluate the growth phenotype of a set of plants, a 1 mg concentration of 100 Mm (solution QD-2). This solution was diluted serially with water with or without Triton X-100, ethanol or DMSO and used directly for measurement of effects on seed germination or applied using a microliter syringe to foliage to evaluate growth effects on plants.
With seed germination, the compound was evaluated against five species: cabbage (Early Jersey Wakefield), radish (Scarlet Turnip White Tipped), carrot (Danvers Half Long), tomato (Rutgers) and sorghum (DeKalb 18). With water dilutions, seed germination of all species was inhibited at 10 μM (an aqueous dilution of 10 μl of 100 Mm 1:1000 in 100 μl of water) (Final DMSO concentration of 1:10,000=0.01%). Germination of tomato was inhibited at 10μ1/100 µl of an aqueous dilution of 1:10,000=1 μM final concentration.

As for `CC1=CC(=O)C(O)C2(C)C1CC1OC(=O)C(O)C3C(C)C(O)C4(O)OCC13C42` (stereo not shown) [Glaucarubolone, glaucarubolone], the Cures in experiment [1] (C38, IV at MTD, cured/total mice) is listed as 1/5. Further, the “in vivo activity against C38, in words” value in [1] (mouse, in vivo) is “therapeutic activity”. In addition, the “inhibition of NADH oxidation, in words” value in experiment [2] (isolated plasma membranes of liver cells, FIG. 10) was “inhibits NADH oxidation”; in [8], “similarly inhibited”. The EC50 in experiment [2] (Rat liver golgi apparatus), in experiment [2] (Rat liver microsomes), in experiment [2] (Rat liver plasma membrane) and in [4] was above 10 µM each time. For the same molecule, in experiment [3], the “killing of HIV infected MOLT-4 cells compared to uninfected cells” value is recorded as “differentially killed at two log orders less”. In addition, in [5] (10 μM ter-butylhydroperoxide), the “Growth HeLa cells after 72 h, Oxidized” value came to 500 cells/mm^2. In addition, the “Growth HeLa cells after 72 h, Reduced” value in experiment [5] (100 μM cysteine) was 700 cells/mm^2. In addition, the “Growth HeLa cells after 72 h, In situ” value in [5] is listed as 720 cells/mm^2. Besides, in experiment [6], the “solid tumor selectivity in vitro” value is recorded as “demonstrated solid tumor selectivity”. In experiment [7], the “cytopathic effect of human rhinovirus-14” value is “Cytopathic effect was delayed”. For the same molecule, in experiment [9], the “zone of inhibition H8” value is listed as 650 ZONE UNITS. Besides, the “zone of inhibition CX-1” value in experiment [10] amounted to 100 ZONE UNITS. For the same molecule, in [11] (DMSO and ethanol dilutions 1:10^6 or 1:10^7, solvents themselves retarded germination), the “lowest concentrations at which inhibitions of germination were observed” value is given as 10-100 Nm. Moreover, the “concentration at which seed germination was inhibited” value in [11] (all five species, water dilutions) was 10 µM; in [11] (tomato, aqueous dilution 1:10,000), 1 µM.
